# Assay results: ChEMBL document CHEMBL5291721, “A preclinical secondary pharmacology resource illuminates target-adverse drug reaction associations of marketed drugs” (Nat Commun, 2023)
# What was measured:
# D(1A) dopamine receptor = D(1A) dopamine receptor (Homo sapiens, UniProt P21728)
# Mu-type opioid receptor = Mu-type opioid receptor (Homo sapiens, UniProt P35372); assay: biochemical; format: functional
# Adenosine receptor A1 = target: T1, Adenosine receptor A1 (Homo sapiens, UniProt P30542)
# T1 sequence (P30542 whole entry): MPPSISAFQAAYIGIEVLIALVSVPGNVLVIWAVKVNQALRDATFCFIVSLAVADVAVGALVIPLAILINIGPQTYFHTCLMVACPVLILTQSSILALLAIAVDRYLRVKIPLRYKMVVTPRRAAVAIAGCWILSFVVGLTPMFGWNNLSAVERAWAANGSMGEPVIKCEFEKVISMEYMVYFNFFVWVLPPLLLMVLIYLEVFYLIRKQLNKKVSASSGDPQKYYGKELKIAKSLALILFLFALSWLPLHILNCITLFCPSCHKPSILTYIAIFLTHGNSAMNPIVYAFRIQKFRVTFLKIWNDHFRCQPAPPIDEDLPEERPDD
# Vasopressin V2 receptor = Vasopressin V2 receptor (Homo sapiens, UniProt P30518)
# B2 bradykinin receptor = target: T2, B2 bradykinin receptor (Homo sapiens, UniProt P30411)
# T2 sequence (P30411 whole entry): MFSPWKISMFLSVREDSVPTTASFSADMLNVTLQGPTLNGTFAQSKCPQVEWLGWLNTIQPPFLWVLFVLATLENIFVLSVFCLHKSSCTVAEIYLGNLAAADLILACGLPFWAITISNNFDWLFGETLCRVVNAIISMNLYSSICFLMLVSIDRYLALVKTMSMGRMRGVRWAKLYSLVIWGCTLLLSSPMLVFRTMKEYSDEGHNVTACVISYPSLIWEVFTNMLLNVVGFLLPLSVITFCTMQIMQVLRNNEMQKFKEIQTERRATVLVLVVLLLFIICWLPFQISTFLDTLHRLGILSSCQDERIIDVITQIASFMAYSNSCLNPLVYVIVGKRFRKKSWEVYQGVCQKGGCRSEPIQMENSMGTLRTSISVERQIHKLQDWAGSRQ
# [1] = target: Voltage-dependent L-type calcium channel subunit alpha-1C (Rattus norvegicus, UniProt P22002); format: functional
# Estrogen receptor = target: T3, Estrogen receptor (Homo sapiens, UniProt P03372)
# T3 sequence (P03372 whole entry): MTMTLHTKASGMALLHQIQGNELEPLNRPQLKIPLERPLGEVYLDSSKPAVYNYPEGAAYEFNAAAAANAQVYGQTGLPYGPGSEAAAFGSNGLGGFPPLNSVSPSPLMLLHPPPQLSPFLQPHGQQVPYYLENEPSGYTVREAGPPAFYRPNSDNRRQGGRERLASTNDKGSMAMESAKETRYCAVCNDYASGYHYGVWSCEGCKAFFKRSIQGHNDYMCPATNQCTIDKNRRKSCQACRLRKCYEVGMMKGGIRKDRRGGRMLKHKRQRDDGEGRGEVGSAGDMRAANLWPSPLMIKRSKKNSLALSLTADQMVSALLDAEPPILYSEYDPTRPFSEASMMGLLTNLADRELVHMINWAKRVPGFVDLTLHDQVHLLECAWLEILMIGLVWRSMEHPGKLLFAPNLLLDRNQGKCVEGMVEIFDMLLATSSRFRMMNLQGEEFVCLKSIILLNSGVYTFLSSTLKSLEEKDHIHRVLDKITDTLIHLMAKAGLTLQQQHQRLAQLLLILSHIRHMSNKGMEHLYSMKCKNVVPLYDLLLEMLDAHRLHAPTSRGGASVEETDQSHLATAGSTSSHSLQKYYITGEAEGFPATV
# Progesterone receptor = target: T4, Progesterone receptor (Homo sapiens, UniProt P06401); format: functional
# T4 sequence (P06401 whole entry): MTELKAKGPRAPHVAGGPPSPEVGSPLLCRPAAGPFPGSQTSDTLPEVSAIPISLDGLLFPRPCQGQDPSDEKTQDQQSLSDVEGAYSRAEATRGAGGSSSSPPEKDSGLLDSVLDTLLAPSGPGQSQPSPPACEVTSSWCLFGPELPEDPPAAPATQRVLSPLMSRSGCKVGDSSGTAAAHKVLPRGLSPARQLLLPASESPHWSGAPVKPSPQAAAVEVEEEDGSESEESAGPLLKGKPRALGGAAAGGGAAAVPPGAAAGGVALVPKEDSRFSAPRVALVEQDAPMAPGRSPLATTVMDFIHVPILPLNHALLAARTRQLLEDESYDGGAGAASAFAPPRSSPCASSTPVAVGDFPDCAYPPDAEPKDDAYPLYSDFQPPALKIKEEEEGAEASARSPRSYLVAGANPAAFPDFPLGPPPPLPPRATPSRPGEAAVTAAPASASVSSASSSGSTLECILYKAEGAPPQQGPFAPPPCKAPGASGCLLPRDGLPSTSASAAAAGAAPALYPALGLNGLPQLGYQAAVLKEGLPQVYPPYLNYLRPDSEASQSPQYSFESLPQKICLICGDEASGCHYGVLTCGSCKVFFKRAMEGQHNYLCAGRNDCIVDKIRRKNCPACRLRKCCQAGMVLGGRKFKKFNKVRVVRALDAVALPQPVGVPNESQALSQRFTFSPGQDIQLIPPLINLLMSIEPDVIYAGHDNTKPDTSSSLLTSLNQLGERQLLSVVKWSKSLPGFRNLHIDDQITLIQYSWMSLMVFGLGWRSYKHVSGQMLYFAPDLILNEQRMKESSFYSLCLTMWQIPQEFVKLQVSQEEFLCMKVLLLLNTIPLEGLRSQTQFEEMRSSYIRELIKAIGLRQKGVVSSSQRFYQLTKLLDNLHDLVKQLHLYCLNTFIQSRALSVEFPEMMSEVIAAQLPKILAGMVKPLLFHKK
# [2] = target: T5, Equilibrative nucleoside transporter 1 (Homo sapiens, UniProt Q99808)
# T5 sequence (Q99808 whole entry): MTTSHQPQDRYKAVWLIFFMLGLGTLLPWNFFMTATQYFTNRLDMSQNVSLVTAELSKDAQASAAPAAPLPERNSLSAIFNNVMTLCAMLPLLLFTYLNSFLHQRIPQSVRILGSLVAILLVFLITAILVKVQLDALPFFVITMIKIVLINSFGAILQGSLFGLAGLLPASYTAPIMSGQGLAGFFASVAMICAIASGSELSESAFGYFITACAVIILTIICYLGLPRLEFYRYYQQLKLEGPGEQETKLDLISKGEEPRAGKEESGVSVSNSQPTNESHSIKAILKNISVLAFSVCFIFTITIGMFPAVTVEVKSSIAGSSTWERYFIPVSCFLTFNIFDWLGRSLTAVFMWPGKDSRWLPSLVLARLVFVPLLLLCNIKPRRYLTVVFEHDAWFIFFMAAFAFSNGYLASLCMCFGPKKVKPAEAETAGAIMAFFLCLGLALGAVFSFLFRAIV
# [3] = target: Sodium-dependent serotonin transporter (Homo sapiens, UniProt P31645)
# Also: assay procedure not described here.
# Chain of Mu-type opioid receptor (P35372 whole entry): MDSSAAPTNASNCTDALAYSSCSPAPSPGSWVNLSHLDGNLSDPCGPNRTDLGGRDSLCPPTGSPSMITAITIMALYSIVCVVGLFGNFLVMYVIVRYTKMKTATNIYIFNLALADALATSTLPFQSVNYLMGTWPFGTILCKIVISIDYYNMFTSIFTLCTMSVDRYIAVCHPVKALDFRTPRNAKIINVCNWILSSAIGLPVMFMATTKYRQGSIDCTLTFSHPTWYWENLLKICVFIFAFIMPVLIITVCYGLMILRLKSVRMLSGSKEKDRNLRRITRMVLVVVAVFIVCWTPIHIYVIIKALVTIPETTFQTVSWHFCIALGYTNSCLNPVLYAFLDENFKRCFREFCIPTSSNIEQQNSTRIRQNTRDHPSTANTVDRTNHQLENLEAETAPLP
# Chain of D(1A) dopamine receptor (P21728 whole entry): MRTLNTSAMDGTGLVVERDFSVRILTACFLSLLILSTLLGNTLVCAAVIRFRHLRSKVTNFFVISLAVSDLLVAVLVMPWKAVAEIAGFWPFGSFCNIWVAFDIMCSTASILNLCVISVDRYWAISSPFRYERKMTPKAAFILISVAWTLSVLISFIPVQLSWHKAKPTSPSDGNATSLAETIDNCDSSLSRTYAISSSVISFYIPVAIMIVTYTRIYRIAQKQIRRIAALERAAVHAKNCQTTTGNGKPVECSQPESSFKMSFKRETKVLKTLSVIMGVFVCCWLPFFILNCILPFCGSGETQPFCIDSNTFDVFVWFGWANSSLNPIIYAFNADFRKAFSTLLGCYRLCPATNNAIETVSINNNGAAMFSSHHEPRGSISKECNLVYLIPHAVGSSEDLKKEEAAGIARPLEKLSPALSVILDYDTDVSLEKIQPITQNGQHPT
# Chain of Vasopressin V2 receptor (P30518 whole entry): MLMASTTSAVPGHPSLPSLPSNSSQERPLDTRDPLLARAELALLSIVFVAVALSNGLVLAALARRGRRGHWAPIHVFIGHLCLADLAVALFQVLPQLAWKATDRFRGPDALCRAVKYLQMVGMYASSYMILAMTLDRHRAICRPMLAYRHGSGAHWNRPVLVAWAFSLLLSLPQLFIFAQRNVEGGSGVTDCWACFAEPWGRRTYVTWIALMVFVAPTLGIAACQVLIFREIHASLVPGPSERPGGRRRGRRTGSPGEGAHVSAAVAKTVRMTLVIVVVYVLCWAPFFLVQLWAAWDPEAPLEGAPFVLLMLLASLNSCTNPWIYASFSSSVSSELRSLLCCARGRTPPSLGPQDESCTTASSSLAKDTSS
# Chain of Sodium-dependent serotonin transporter (P31645 whole entry): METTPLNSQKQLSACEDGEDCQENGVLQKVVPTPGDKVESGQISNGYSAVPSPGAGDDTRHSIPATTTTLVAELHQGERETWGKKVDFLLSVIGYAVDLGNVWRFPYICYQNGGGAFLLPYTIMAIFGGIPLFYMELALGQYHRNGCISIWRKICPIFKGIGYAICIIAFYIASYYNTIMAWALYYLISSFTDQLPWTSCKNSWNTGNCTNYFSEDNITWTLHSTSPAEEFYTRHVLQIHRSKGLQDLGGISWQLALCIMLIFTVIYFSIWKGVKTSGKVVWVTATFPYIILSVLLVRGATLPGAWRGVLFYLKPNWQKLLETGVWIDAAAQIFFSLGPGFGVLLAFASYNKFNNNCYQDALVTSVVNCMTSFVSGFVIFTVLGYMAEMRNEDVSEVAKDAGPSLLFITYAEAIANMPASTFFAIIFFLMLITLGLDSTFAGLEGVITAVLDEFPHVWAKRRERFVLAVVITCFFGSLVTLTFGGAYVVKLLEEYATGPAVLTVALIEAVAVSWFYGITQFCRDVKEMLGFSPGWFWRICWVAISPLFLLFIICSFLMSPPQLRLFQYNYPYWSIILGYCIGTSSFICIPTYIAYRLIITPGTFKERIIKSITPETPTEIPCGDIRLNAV
# Chain of Voltage-dependent L-type calcium channel subunit alpha-1C (P22002 whole entry): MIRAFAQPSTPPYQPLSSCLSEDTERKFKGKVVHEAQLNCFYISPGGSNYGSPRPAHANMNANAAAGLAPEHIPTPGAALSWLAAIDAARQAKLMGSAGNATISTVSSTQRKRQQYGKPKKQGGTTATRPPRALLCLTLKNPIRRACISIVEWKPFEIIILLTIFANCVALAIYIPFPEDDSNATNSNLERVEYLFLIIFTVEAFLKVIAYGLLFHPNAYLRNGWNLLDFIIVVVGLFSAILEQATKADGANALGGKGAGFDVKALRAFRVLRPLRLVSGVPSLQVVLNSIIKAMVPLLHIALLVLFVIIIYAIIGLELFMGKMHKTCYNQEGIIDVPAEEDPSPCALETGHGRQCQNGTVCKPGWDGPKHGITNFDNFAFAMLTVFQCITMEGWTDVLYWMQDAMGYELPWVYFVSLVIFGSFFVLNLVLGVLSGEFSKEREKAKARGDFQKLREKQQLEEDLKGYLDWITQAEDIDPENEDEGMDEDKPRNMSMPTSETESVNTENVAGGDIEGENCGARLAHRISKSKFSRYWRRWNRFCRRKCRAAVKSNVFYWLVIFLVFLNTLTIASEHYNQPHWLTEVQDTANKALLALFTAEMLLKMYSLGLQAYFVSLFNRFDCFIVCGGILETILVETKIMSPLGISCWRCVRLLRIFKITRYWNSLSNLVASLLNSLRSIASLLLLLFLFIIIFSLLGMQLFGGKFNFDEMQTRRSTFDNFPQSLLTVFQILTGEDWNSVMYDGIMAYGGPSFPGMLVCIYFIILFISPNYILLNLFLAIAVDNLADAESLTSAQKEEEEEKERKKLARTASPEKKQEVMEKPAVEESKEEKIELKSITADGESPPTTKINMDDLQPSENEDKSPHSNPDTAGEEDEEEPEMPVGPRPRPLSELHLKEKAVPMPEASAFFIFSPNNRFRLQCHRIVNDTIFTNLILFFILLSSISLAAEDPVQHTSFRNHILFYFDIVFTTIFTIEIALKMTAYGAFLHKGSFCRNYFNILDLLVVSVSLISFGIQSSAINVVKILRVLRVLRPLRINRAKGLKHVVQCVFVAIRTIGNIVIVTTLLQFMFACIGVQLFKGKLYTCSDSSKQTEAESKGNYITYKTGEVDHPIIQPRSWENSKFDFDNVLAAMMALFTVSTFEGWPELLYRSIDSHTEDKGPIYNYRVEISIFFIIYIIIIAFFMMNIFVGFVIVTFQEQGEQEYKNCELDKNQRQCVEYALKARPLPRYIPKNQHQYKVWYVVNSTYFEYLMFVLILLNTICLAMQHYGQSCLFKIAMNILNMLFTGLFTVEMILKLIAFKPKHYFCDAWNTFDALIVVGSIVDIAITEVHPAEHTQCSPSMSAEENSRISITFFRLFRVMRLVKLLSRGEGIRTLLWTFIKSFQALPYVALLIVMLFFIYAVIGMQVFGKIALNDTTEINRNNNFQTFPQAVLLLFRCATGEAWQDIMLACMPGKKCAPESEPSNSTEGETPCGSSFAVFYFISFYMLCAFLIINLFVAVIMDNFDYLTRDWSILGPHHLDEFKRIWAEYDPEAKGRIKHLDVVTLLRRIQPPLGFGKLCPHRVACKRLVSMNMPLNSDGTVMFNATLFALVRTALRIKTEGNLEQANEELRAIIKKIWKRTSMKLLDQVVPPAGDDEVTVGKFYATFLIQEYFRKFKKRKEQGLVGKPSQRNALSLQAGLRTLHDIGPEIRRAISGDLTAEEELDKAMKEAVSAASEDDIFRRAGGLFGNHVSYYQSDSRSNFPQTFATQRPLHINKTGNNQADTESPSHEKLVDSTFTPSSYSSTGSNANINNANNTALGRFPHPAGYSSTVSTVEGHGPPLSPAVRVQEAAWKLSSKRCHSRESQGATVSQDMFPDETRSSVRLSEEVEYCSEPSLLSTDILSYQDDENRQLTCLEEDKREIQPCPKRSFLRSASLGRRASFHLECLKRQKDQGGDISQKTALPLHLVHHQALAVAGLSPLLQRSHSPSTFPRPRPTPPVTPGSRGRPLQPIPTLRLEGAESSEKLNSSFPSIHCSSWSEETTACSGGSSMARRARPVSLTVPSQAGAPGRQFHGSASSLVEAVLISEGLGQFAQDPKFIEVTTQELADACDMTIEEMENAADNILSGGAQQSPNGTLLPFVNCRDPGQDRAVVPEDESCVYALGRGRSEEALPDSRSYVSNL
Structure (SMILES),AC50 (D(1A) dopamine receptor),AC50 (Mu-type opioid receptor),other results
CC1=NN(c2ccccc2)C(=O)C1 [EDARAVONE],> 30 µM,,
Nc1nc(-n2cc(C(=O)O)c(=O)c3cc(F)c(N4CC(O)C4)c(Cl)c32)c(F)cc1F [DELAFLOXACIN],> 30 µM,,
Cn1cc[nH]c1=S [METHIMAZOLE],> 30 µM,,
CN1C(=O)N(C)C2C1N(C)C(=O)N2C (centres undefined) [MEBICAR],> 30 µM,,
NS(=O)(=O)c1cc2c(cc1Cl)NC(CC1CCCC1)NS2(=O)=O (centres undefined) [CYCLOPENTHIAZIDE],> 30 µM,> 30 µM,
N/N=c1/cc2c(n[nH]1)CCN(C(=O)c1ccccc1)C2 [ENDRALAZINE],> 30 µM,> 30 µM,
Nc1ccc(/N=N/c2ccccc2)c(N)n1 [PHENAZOPYRIDINE],> 30 µM,,
NC(=O)c1cccc2cn(-c3ccc([C@@H]4CCCNC4)cc3)nc12 [NIRAPARIB],> 30 µM,,
COCC1=C(C(=O)OC(C)OC(=O)OC(C)C)N2C(=O)[C@@H](NC(=O)/C(=N\OC)c3csc(N)n3)[C@H]2SC1 (some centres undefined) [CEFPODOXIME PROXETIL],> 30 µM,> 30 µM,
CO/N=C(\C(=O)N[C@@H]1C(=O)N2C(C(=O)OCOC(=O)C(C)(C)C)=C(C)CS[C@H]12)c1csc(N)n1,> 30 µM,> 30 µM,
CC(C)=CCC1C(=O)N(c2ccccc2)N(c2ccccc2)C1=O [FEPRAZONE],> 30 µM,,
O=C(Cn1ccnc1[N+](=O)[O-])NCc1ccccc1 [BENZNIDAZOLE],> 30 µM,> 30 µM,AC50 (Adenosine receptor A1): > 30 µM; AC50 (Vasopressin V2 receptor): > 30 µM; AC50 (B2 bradykinin receptor): > 30 µM; AC50 [1]: > 30 µM; AC50 (Estrogen receptor): > 30 µM; AC50 (Progesterone receptor): > 30 µM; AC50 [2]: > 30 µM; AC50 [3]: > 30 µM
CC(=O)N[C@H]1[C@H]([C@H](O)[C@H](O)CO)OC(C(=O)O)=C[C@@H]1N=C(N)N [ZANAMIVIR],,> 30 µM,AC50 (Adenosine receptor A1): > 30 µM; AC50 (Vasopressin V2 receptor): > 30 µM; AC50 (B2 bradykinin receptor): > 30 µM; AC50 [1]: > 30 µM; AC50 (Estrogen receptor): > 30 µM; AC50 (Progesterone receptor): > 30 µM; AC50 [2]: > 30 µM; AC50 [3]: > 30 µM
